The results in this text go back to patent publication EP1658846B1, “N-(8,8,8-trifluorooctyl)-1,5-dideoxy-1,5-imino-D-glucitol for treating hepatitis virus infections” (priority 1999, dated 2000).

≈ marks a conversion by molar mass, not a printed value. Like-named read-outs stand apart in the source and are kept apart here.

The subject of one series is HepG2.2.15 cells. Nature of the series: Cell viability by trypan blue exclusion. It is filed as cell-based. The settings on record: 3 days, cells excluding trypan blue.
A further series relates to Hepatitis B Virus. Nature of the series: HBV secretion from chronically HBV secreting HepG2.2.15 cells (preS1 immunoprecipitation of virions, PCR). The format is cell-based. As to conditions: for Relative amount of HBV secreted as a % of Control: 3 days, control = 100. As for the experimental part:
(§1) The anti-hepatitis B virus activity and effect on cell viability of a number of different N-substituted-1,5-dideoxy-1,5-imino-D-glucitol compounds were assessed using an in vitro assay employing chronically hepatitis B virus secreting HepG2.2.15 cells. The method employed was essentially that described in Block et al. (1994) Proc. Natl. Acad. Sci. USA 91:2235-2239.

The next series has as its system HBV DNA. Nature of the series: Cell culture experiments with N-nonyl-DNJ: total HBV DNA and immune precipitated DNA. The format is cell-based. From the text:
(§2) There are two measures of drug efficacy: reduction in total HBV DNA (measured by quantitative PCR), and reduction in HBV DNA from capsids with intact surface glycoproteins, which is the active form of the virus (measured by an ELISA-like immune precipitation assay followed by quantitative PCR).

The test system of series [1] is woodchuck hepatitis virus (WHV). Nature of the series: Monotherapy in woodchuck model, BID oral dosing for 4 weeks. It is filed as in vivo. Here is the method: Therefore, five groups of four animals each (all groups had both sexes, all but the control had two of each sex) were assigned to 0, 12.5, 25, 50, and 100 mg/kg/day with BID oral dosing. These were lab-reared wild animals. All animals were infected with woodchuck hepatitis virus (WHV) as neonates, and had been tested positive on serological tests for WHV surface antigen. Blood samples were drawn one week prior to dosing (-1 week), immediately before dosing (0 weeks), weekly during dosing (1, 2, 3, and 4 weeks), and after the end of dosing (5, 6, 8, and 10 weeks).
as §2
Before models are fitted to the data, a log transform was applied because: 1) the variation in IPDNA increases with increasing IPDNA values; the log transformation gives values with a nearly constant variation, and 2) it is expected that drug effects will appear as a constant multiplier of the IPDNA level. Because there are zero values of IPDNA, a small value (about 1/2 of the smallest non-zero value) was added to all values before the log transform.
Two approaches were used to model the changes in slope to week with dose of N-nonyl-DNJ: a linear modeling approach and a nonlinear model. Both approaches assume that the (linear) rate of change of the Log(IPDNA) measure over the dosing period is the "right" measure to reflect the effect of the drug on the virus. Both approaches are fit in stages, and the first stage is common to both approaches. First, a simple straight line regression model is fit using weeks 0-4 to predict log(IPDNA_+_10) separately for each animal by run combination. In the second stage, the response variable is the slope fitted in the first stage.
For the linear approach, a model is fit with slope to week as the response where run is considered a block, dose has a significant effect (almost all of this effect is due to a slope to dose), and the relevant error for testing the effect of dose is the variation among animals treated alike (after the adjustment for the runs as blocks). This is similar to using the calibration data within each run to first adjust each run's data to a common virus DNA concentration; the difference is that here the data from the woodchucks are used for the run adjustment rather than only the calibration data.
For the nonlinear approach, a four parameter logistic model is fit with the slope to week as the response and the dose as the predictor. […]

Series [2] relates to HepG 2.2.15 (2.2.15) cells. Nature of the series: IC-90 values used for the combostat dilutions (unpublished observation / literature). It is filed as cell-based. As to conditions: Hepatitis B virus, HepG2.2.15, T. Block and G. Jacob. Here is the method: The anti-hepatitis B virus effect of […] (3TC) alone and in combination with N-nonyl-DNJ was determined according to Korba ((1996) Antiviral Research 29(1):49-51), using the "combostat" strategy (Comstat Program, Combostat Corp., Duluth, MN). The combostat method involves serially diluting the IC-90 of each compound. The IC-90 of N-nonyl-DNJ has been determined to be between 4 and 10 µg/ml (T. Block and G. Jacob, unpublished observation). The accepted IC-90 for 3TC in HepG 2.2.15 (2.2.15) cells is 300nM to 500nM (Doong et al. (1991) Proc. Natl. Acad. Sci. USA 88:8495-8499).

Series [3] can be described thus: Cell viability by trypan blue exclusion. The format is cell-based. As to conditions: human, hepg2.2.15 cells, 3 days, cells excluding trypan blue, read-out: % Viable +/-1 S.D.
Series [4] is described as follows: MTT-based colorimetric cell viability assay. As to conditions: human, hepg2.2.15 cells; read-out: [] for a 50% reduction in MMT. Here is the method:
as §1
• 1: N-(n-nonyl)-1,5-dideoxy-1,5-imino-D-glucitol • 2: N-(n-butyl)-1,5-dideoxy-1,5-imino-D-glucitol, diacetate • 3: 1,5-dideoxy-1,5-imino-D-glucitol, tetracetate • 4: N,O-(1,6-carbonyl)-1,5-dideoxy-1,5-imino-D-glucitol • 5: N-(n-butyl)-2,3-dimethoxy-1,5-dideoxy-1,5-imino-D-glucitol • 6: N-(n-hexyl)-4,6-benzylidine-1,5-dideoxy-1,5-imino-D-glucitol • 7: N-(n-butyl)-3-methoxy-1,5-dideoxy-1,5-imino-D-glucitol • 8: N-(4,4,4-triflourobutyl)-2,3-dimethoxy-1,5-dideoxy-1,5-imino-D-glucitol, tetracetate • 9: N,O-(1,6-methylenecarbonyl)-1,5-dideoxy-1,5-irriino-D-glucitol • 10: N-(8,8,8-triflourooctyl)-1,5-dideoxy-1,5-imino-D-glucitol MMT: 3-(4,5-dimethylthiazol-2-yl)-2,5-diphenyltetrazolium bromide. The MTT-based colorimetric assay is a measurement of cell viability (Heo et al. (1990) Cancer Research 50:3681-3690).

Where [5] appears, read: concentration [200] (unit not given).
[6] abbreviates: concentration [1000] (unit not given).

“1,5-(butylimino)-1,5-dideoxy-D-glucitol, tetraacetate [Example 2]”: the “% Viable +/-1 S.D.” value in the series on HepG2.2.15 cells (setting [5]) is on record as 90 +/-6 (n=4) %; in the series on HepG2.2.15 cells (setting [6]) it was 89 +/-4 (n=4) %. Moreover, the “Relative amount of HBV secreted as a % of Control” value with Hepatitis B Virus (setting [5]) is given as 107.0 +/-12 (n=3) %; in the series with Hepatitis B Virus (setting [6]), 38.0 +/-15 (n=3) %. The “[ ] for 90% HBV secretion inhibition” value with Hepatitis B Virus (duplicate PCR results, * lowest concentration tested, ** no inhibition at the highest concentration used (200 microgs/ml)) is >200*s* microgs per ml.

In the case of `CCCCCCCCCN1C[C@H](O)[C@@H](O)[C@H](O)[C@H]1CO` [Compound 1 (Table 3), N-(n-nonyl)-1,5-dideoxy-1,5-imino-D-glucitol], in the series with HBV DNA, the “effect on immune precipitated DNA (IPDNA)” value was “marked effect” and the “effect on total HBV DNA” value was “little or no effect”. Moreover, in series [1] (corresponds to the average minimum slope), the “decrease of IPDNA at the minimum slope” value was “about 25 %/week”. Also, the “average minimum slope observed” value in series [1] (printed as 'fewer' (a decrease), weeks 0-4) is 0.31 Log(IPDNA g/mL)/week. Besides, the “effect on total HBV DNA measurements” value in series [1] (quantitative PCR, all dose levels, pre-dose and dosed portions of the study) is “no effect”. Also, in series [1] (weeks 0-4, immune precipitation followed by quantitative PCR), the “IPDNA levels over the dosing period” value is given as “high dose animals tended to have decreasing levels of IPDNA”. The IC90 in series [2] lay within 4 to 10 µg/mL.

With `CCCCN1C[C@H](O)[C@@H](O)[C@H](O)[C@H]1CO` [NBDNJ, N-(n-butyl-)-1,5-dideoxy-1,5-imino-D-glucitol], the viability at 72 h was determined as 94 ± 6% in series [3] (concentration [200] (unit inferred)) and 87 ± 3% in series [3] (concentration [1000] (unit inferred)). In addition, the “% Viable +/-1 S.D.” value with HepG2.2.15 cells (concentration [200] (unit not given), listed as 1, 4320 min) is on record as 90 +/-2 (n=4) %. For the same molecule, the CC50 in series [4] is 100 to 200 µg/mL (≈ 456 to 912 µM). Besides, the IC90 in the series with Hepatitis B Virus (Hepatitis B virus, HepG2.2.15, duplicate PCR results, * lowest concentration tested, ** no inhibition at the highest concentration used (200 microgs/ml), read-out: [ ] for 90% HBV secretion inhibition) fell in the range of 0.5 to 1 µg/mL (≈ 2.28 to 4.56 µM). Moreover, the “Relative amount of HBV secreted as a % of Control” value with Hepatitis B Virus (setting [5]) was 37.0 +/-13 (n=15) %; with Hepatitis B Virus (setting [6]), 3.2 +/-5 (n=15) %.
